{"source": "paper PMC5899197", "about": "(Journal of Virology, 2018)"}
{"biological_target": "T1, BNeV VLPs (rMA415; VP1-major capsid and VP2-minor capsid) (Newbury agent 1, UniProt Q288N7)", "T1 construct": "gene ORF1", "T1 sequence (Q288N7 whole entry, looked up)": "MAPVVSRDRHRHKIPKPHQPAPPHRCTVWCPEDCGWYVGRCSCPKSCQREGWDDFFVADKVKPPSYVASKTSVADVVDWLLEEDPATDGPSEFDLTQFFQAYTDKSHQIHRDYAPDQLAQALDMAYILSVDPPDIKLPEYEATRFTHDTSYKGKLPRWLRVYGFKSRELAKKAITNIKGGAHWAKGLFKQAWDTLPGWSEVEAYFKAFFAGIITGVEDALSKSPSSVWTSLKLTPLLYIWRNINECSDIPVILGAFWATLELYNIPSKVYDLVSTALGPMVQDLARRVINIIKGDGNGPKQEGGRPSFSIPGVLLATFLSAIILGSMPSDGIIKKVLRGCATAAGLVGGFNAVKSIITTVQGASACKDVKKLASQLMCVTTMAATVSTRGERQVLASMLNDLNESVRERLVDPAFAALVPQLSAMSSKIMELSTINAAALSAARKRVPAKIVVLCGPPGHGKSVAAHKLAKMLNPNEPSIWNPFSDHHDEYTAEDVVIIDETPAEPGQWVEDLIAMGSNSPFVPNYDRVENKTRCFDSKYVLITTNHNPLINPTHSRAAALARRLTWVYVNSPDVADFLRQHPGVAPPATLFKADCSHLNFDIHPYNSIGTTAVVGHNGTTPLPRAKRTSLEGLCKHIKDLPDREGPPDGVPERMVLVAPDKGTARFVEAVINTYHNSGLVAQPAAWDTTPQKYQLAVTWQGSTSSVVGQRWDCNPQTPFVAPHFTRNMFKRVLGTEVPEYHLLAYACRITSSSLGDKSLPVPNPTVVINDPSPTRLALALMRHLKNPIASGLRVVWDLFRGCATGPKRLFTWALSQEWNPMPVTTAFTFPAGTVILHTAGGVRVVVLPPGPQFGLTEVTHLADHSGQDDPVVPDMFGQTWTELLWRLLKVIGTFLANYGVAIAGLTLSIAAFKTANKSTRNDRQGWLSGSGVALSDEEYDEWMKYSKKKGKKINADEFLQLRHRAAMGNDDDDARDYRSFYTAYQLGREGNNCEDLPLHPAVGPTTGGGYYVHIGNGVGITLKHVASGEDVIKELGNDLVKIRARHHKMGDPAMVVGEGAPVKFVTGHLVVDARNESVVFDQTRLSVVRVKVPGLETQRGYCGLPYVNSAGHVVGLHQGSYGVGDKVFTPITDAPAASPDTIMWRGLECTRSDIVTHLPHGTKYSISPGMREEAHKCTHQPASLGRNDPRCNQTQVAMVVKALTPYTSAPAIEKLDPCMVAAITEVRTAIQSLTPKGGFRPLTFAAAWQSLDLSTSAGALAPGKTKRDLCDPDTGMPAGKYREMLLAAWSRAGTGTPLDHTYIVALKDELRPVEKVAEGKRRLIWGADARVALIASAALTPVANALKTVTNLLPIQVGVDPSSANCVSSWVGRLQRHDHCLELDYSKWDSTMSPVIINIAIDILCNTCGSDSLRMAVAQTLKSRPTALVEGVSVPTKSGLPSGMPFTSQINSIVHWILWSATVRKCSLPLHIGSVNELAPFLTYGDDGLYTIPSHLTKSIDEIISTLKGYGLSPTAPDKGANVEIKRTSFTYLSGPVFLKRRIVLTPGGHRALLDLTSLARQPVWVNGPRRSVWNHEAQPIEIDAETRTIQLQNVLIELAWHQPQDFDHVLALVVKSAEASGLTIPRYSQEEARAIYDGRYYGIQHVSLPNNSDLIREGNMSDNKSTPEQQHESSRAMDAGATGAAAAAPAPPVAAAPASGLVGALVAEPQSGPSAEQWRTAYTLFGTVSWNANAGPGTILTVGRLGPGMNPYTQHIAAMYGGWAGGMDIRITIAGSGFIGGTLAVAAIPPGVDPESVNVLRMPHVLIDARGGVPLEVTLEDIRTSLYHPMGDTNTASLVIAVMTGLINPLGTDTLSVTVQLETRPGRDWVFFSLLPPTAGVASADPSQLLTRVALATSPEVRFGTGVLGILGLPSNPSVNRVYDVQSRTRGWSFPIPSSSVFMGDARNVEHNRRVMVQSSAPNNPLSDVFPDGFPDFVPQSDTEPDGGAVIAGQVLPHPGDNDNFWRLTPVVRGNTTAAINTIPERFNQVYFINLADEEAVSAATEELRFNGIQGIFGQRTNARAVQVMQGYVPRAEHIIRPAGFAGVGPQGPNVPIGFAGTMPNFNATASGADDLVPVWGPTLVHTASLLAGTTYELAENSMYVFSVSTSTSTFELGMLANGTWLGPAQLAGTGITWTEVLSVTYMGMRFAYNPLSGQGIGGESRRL", "format": "binding"}
{"smiles": "CC(=O)N[C@H]1C(O)O[C@H](CO)[C@@H](O[C@@H]2O[C@H](CO)[C@H](O)[C@H](O)[C@H]2O[C@@H]2O[C@@H](C)[C@@H](O)[C@@H](O)[C@@H]2O)[C@@H]1O", "note": "(stereo partly shown) [H2]", "plate binding assay (ELISA), HRP-streptavidin, A450": "sialyl-Le^a (SLe^a), Le^y, Le^x, αGal, H2, H1, SLe^x, A, and B type immobilized synthetic HBGA"}
{"smiles": "CC(=O)N[C@H]1C(O)O[C@H](CO)[C@@H](O[C@@H]2O[C@H](CO)[C@H](O)[C@H](O)[C@H]2O)[C@@H]1O[C@@H]1O[C@@H](C)[C@@H](O)[C@@H](O)[C@@H]1O", "note": "(stereo partly shown) [Le^x]", "plate binding assay (ELISA), HRP-streptavidin, A450": "sialyl-Le^a (SLe^a), Le^y, Le^x, αGal, H2, H1, SLe^x, A, and B type immobilized synthetic HBGA"}
{"smiles": "CC(=O)N[C@H]1C(O)O[C@H](CO)[C@@H](O[C@@H]2O[C@H](CO)[C@H](O)[C@H](O)[C@H]2O[C@@H]2O[C@@H](C)[C@@H](O)[C@@H](O)[C@@H]2O)[C@@H]1O[C@@H]1O[C@@H](C)[C@@H](O)[C@@H](O)[C@@H]1O", "note": "(stereo partly shown) [Le^y]", "plate binding assay (ELISA), HRP-streptavidin, A450": "sialyl-Le^a (SLe^a), Le^y, Le^x, αGal, H2, H1, SLe^x, A, and B type immobilized synthetic HBGA"}
{"smiles": "CC(=O)N[C@H]1[C@H]([C@H](O)[C@H](O)CO)O[C@@](O[C@H]2[C@@H](O)[C@@H](CO)O[C@@H](O[C@H]3[C@H](O[C@@H]4O[C@@H](C)[C@@H](O)[C@@H](O)[C@@H]4O)[C@@H](CO)OC(O)[C@@H]3NC(C)=O)[C@@H]2O)(C(=O)O)C[C@@H]1O", "note": "(stereo partly shown) [sialyl-Le^a]", "plate binding assay (ELISA), HRP-streptavidin, A450": "sialyl-Le^a (SLe^a), Le^y, Le^x, αGal, H2, H1, SLe^x, A, and B type immobilized synthetic HBGA"}
